Patent publication US8569264B2, “Antibacterial 4,5-substituted aminoglycoside analogs having multiple substituents” (ISIS Pharmaceuticals, Inc., priority 2005, dated 2013)

How the values were obtained:
Format in all cases: cell-based
E. coli ATCC 25922 = test: MIC, E. coli ATCC 25922; conditions: Escherichia coli, ATCC25922, Example 112
Procedure: (§1) The MIC assays are carried out in 150 μL volume in duplicate in 96-well clear flat-bottom plates. The bacterial suspension from an overnight culture growth in appropriate medium is added to a solution of test compound in 4% DMSO in water. Final bacterial inoculum is approximately 10^5-10^6 CFU/well. […] Both ampicillin and tetracycline are used as antibiotic-positive controls in each screening assay for S. pyogenes, E. coli imp-, E. coli, S. aureus, E. faecalis, K. pneumoniae and P. vulgaris. Ciprofloxacin is used as an antibiotic positive control in each screening assay for P. aeruginosa.
(§2) The following compounds were prepared using methods illustrated in the previous examples. The compounds were also examined in standard bacterial assays against E. Coli, S. Aureus, P. aurginosa, K. pneumoniae, P. vulgaris, and A. baumannii to determine activities. Each of the bacterial cultures that are available from ATCC (www.atcc.org) is identified by its ATCC number. A. baumannii is gentamicin sensitive Acinetobacter baumannii #2 from Walter Reed.

K. pneumoniae ATCC 10031 = test: MIC, K. pneumoniae ATCC 10031; conditions: Klebsiella pneumoniae, ATCC10031, Example 112
Procedure: as §1, §2

P. aurginosa ATCC 27853 = test: MIC, P. aurginosa ATCC 27853; conditions: Example 112
Procedure: (§3) The MIC assays are carried out in 150 μL volume in duplicate in 96-well clear flat-bottom plates. The bacterial suspension from an overnight culture growth in appropriate medium is added to a solution of test compound in 4% DMSO in water. Final bacterial inoculum is approximately 10^5-10^6 CFU/well. The percent growth of the bacteria in test wells relative to that observed for a well containing no compound is determined by measuring absorbance at 595 nm (A595) after 24 h. The MIC is determined as a range of single compound where the complete inhibition of growth is observed at the higher concentration and cells are viable at the lower concentrations. Both ampicillin and tetracycline are used as antibiotic-positive controls in each screening assay for S. pyogenes, E. coli imp-, E. coli, S. aureus, E. faecalis, K. pneumoniae and P. vulgaris. Ciprofloxacin is used as an antibiotic positive control in each screening assay for P. aeruginosa.
as §2, with “compound was” for “compounds were”, “pneumoniae” for “pneumoniae, P. vulgaris,”, “number.” for “number. A. baumannii is gentamicin sensitive Acinetobacter baumannii #2 from Walter Reed.”

S. aureus ATCC 29213 = test: MIC, S. aureus ATCC 29213; conditions: Staphylococcus aureus, ATCC29213; Example 112
Procedure: as §3
as §2, with “compound was” for “compounds were”, “pneumoniae” for “pneumoniae, P. vulgaris,”, “number.” for “number. A. baumannii is gentamicin sensitive Acinetobacter baumannii #2 from Walter Reed.”

A. baumannii ATCC 19606 = test: MIC, A. baumannii ATCC 19606; conditions: Acinetobacter baumannii, ATCC19606; Example 112
Procedure: as §3
as §2, with “compound was” for “compounds were”, “pneumoniae” for “pneumoniae, P. vulgaris,”, “number.” for “number. A. baumannii is gentamicin sensitive Acinetobacter baumannii #2 from Walter Reed.”

Measured: MIC

NCC[C@H](O)C(=O)N[C@@H]1C[C@H](N)[C@@H](O[C@H]2O[C@H](CN)CC[C@H]2N)[C@H](O[C@@H]2O[C@H](CO)[C@@H](O[C@H]3O[C@@H](CN)[C@@H](O)[C@H](O)[C@H]3N)[C@H]2OCCNCCc2ccccc2)[C@H]1O [Compound 87, N-1-haba-2″-O-phenylethylaminoethyl-3′,4′-dideoxy neomycin]
< 16 µM: all assays above
